Test results as given in patent US9828630B2, “Methods of enhancing genetic diagnosis” (BioLamina AB, priority 2011, dated 2017).

Legend:
[1] = system: ES cells; test: Embryoid body formation; type: cell-based, human; settings: cells cultured on LN-521, all three cases
Experimental: ES cells from LN-521 coated cell culture dishes were exposed to TrypLE™ Select for one minute at 37° C., 5% CO2, washes two times with a medium, broken into large pieces and cultured in suspension in low adhesion plates. The medium used for this was Knockout DMEM (GIBCO Invitrogen Corporation) supplemented with 2 mM L-glutamine, 20% fetal calf serum (GIBCO Invitrogen Corporation), 0.1 mM β-mercaptoethanol (GIBCO Invitrogen Corporation) and 1% non-essential amino acids (GIBCO Invitrogen Corporation). After 1-2 weeks in suspension, the embryoid bodies were transferred onto gelatin coated tissue cell culture 96-well plates (Sarstedt), cultured for 1-2 weeks, then fixed, stained with antibodies against markers of all three embryonic germ line layers (smooth muscle actin, MAP-2 and α-fetoprotein) and analyzed as described above for immunofluorescence.

[2] = system: human ES and iPS cells; test: Long-term culture with single cell dissociation passaging; type: cell-based; settings: for proliferation rate / increase in number of cells compared with Matrigel or classical methods: FIG. 8; for passages proliferated: O3 medium
Experimental: Human ES cells were cultured on r-laminin-521-coated laboratory dishes in chemically defined O3 medium (described in Rodin et al., Nature Biotechnol., vol. 28, pp. 611-615 (2010)) at 37° C. in 5% CO2. Cells were routinely passed once every 10-12 days by exposure to Trypsin-EDTA solution (GIBCO Invitrogen) for 5 minutes at 37° C. They were then gently pipetted to break into single-cell suspension and defined trypsin inhibitor (GIBCO Invitrogen) was added. The cell suspension was centrifuged […], the supernatant discarded, the cell pellet resuspended in prewarmed O3 medium, and cells were then passed through a 40 μm sieve. After that cells were plated on new r-laminin-521-coated dishes at a concentration 30 Kcells/cm^2 (1:25-1:30 split ratio). Cells were fed once a day with fresh medium prewarmed in an incubator for 1 hour, except for the first day after a passage, when only a few drops of fresh medium were added. Control cells of the same line were cultured on Matrigel (BD Biosciences) in O3 medium as described in Rodin et al., Nature Biotechnol., vol. 28, pp. 611-615 (2010). Control cells were passaged in pieces.
Human ES cells of HS181 and HS401 were cultured on LN-521-coated culture dishes in O3 medium (described in Rodin et al., Nature Biotechnol., vol. 28, pp. 611-615 (2010) with pH was adjusted to 7.35), mTeSR1 (STEMCELL Technologies) and chemically defined and xeno-free TeSR2 (STEMCELL Technologies) at 37° C., 5% CO2. Initially, cells of the lines were transferred onto a LN-521 coating from a human feeder cell layer by careful scratching using a sterile knife with subsequent trypsinization, or the cells were trypsinized into single cell suspension from a LN-511 coating. The cells were provided once a day with fresh medium pre-warmed in an incubator for one hour, except for the first day after plating, when only a few drops of fresh medium were added. Cells were routinely passed once in 10-12 days by exposure to Trypsin/EDTA (GIBCO Invitrogen Corporation, Paisley, Scotland) for 5 minutes at 37° C., 5% CO2. They were then gently pipetted to break into single-cell suspension and a Defined Trypsin Inhibitor (GIBCO Invitrogen) was added. The cell suspension was centrifuged at 25 rcf for 4 minutes, the supernatant was discarded, the cell pellet was resuspended in prewarmed O3 medium, and the cells were then passed through a 40 μm sieve. Subsequently, the cells were plated on new LN-521-coated dishes at a concentration of 30,000 cells/cm^2 in 1:25-1:30 split ratios. Control cells of the same line were cultured on Matrigel (STEMCELL Technologies) and LN-511 in O3 medium as described previously.^9
For defined and xeno-free cultures, TeSR2 (STEMCELL Technologies) medium and defined free from any animal derived component TrypLE™ Select (GIBCO Invitrogen Corporation, Paisley, Scotland) enzyme were used. The cells were passed every 10-14 days by exposure to TrypLE™ Select for 4-5 minutes at 37° C., 5% CO2. Then, the enzyme was carefully aspirated and prewarmed TeSR2 medium was added. After that, the cells were gently pipetted to break into single-cell suspension, centrifuged, the supernatant was discarded, and the cell pellet was resuspended in prewarmed TeSR2. The cells were then passed through a 40 μm sieve and plated on a fresh LN-521 coated dish.

[3] = system: human ES cells; test: Real-time quantitative RT-PCR / marker expression of pluripotency and differentiation markers; type: cell-based
Experimental: Total RNA was isolated and cDNA was synthesized as described in Rodin et al., Nature Biotechnol., vol. 28, pp. 611-615 (2010). Real-time quantitative RT-PCR Taqman assays were performed using the Applied Biosystems 7300 Real-Time PCR System. All reactions were done in quadruplicate with predeveloped gene expression assay mix (Applied Biosystems) containing primers and a probe for the mRNA of interest. Additional reactions for each experiment included predeveloped gene expression assay mix for GAPDH, used to normalize the RNA input. All data were analyzed with 7300 System SDS Software version 1.4.
Total RNA was isolated using Absolutely RNA Microprep Kit (Stratagene, La Jolla Calif., www.stratagene.com) according to the manufacturer's instructions. cDNA was synthesized using 0.2 μg of total RNA in 20 μl reaction mixture, containing oligo(dT)12-18 primers and Superscript II reverse transcriptase (GIBCO Invitrogen Corporation), according to the manufacturer's instructions. Real-time quantitative RT-PCR Taqman assays were performed using the Applied Biosystems 7300 Real-Time PCR System (Applied Biosystems, Foster City, Calif.). All reactions were done in quadruplicates with the use of a pre-developed gene expression assay mix (Applied Biosystems) containing primers and a probe for the mRNA of interest. […] All data was analyzed with 7300 System SDS Software v 1.4.

“LN-521: protein formed by joining laminin α5, β2 and γ1 chains; human recombinant, produced in HEK293 cells” was tested, and the “embryoid body formation with markers of mesoderm, ectoderm and endoderm” value [1] was “retained the competence to form embryoid bodies”, the passages cultured ([2]; ChiPSW iPS cells, mTeSR1) was 3 passages and the “robust proliferation with stable and high rate” value ([2]; Example 1, O3 medium, 1:25 to 1:30, 3 months) was “at least 9 passages”. The “proliferation rate / increase in number of cells compared with Matrigel or classical methods” value [2] was “much faster rate”, the “proliferation rate / increase in number of cells compared with Matrigel or classical methods” value ([2]; listed as laminin-521) was “higher rate” and the passages proliferated ([2]; H1 cells, 6 months) was ≥ 15 passages. For the same substance, the passages proliferated ([2]; HS181 cells, 9 months) was “at least 24 passages”, the passages proliferated ([2]; HS401 cells, 2 months) was ≥ 5 passages and the “passages to undergo the same number of cell doublings as 20 passages (100 days / 3 months) by conventional methods on Matrigel” value ([2]; single cell suspension passaging, 1 month) was 3 passages. The “number of mRNA transcripts of pluripotency markers Oct4 and Nanog compared with Matrigel” value ([3]; FIG. 11) was “higher numbers of transcripts” and the “expression levels of pluripotency markers Oct4, Nanog and SSEA4” value ([3]; similar to cells on Matrigel passed as small clumps) was “stable expression levels”.
